According to PMC2816717, “Active Fragments from Pro- and Antiapoptotic BCL-2 Proteins Have Distinct Membrane Behavior Reflecting Their Functional Divergence” (PLoS ONE, 2010):

Assays:
[1] = Langmuir monolayer penetration assay, lipid mixture not singled out (Figure 5); type: physicochemical; conditions: Figure 5A; πi 5 mN/m, peptide 0.2 µM, Hepes pH 7.4, duplicate
Description: (§1) For the biophysical characterization of membrane active protein fragments, we have used Langmuir monolayers as in vitro model of lipid membranes. These supramolecular lipid films formed at the air-water interface are attractive membrane models, widely used for studying peptide-lipid interactions, [56], [57]. We have investigated the binding of peptides derived from the central helices of BAX, BCL-xL and BID at physiological pH with model phospholipid monolayers of a composition that imitates mitochondrial membranes. For this purpose we selected fragments encompassing the sequences corresponding to the first or second α-helices of the core hairpins of BAX, BCL-xL and BID, as defined in the water-soluble protein structures, [17], [19]. Because the structures of those proteins in a membrane environment is currently unavailable, for the case of the first hairpin helix of BAX and BCL-xL (α5) we analyzed both a short version (labeled “S”), including only the reported α-helical residues, and a long version (labeled “L”) that extends a few residues beyond the α-helix stretch at both ends. Divergence of the BID sequence precluded unambiguous alignment with the other two proteins and a similar peptide design. Peptides corresponding to the BH3 domain of BAX, BCL-xL and BID were also included in the study. The sequence and some general properties of the peptides analyzed in this study are described in Table 1 and Figure 1). Lipid mixtures of POPC/DOPE (2∶1) and POPC/DOPE/CL (1∶1∶1) were chosen to mimic the MOM and the contact sites between inner and outer mitochondrial membrane (MIM/MOM), respectively. Penetration assays were carried out at constant area by spreading the lipids at the air-buffer interface, compressing the film at πi = […] and then injecting the peptides into the subphase at a concentration of 0.2 µM (see Material and Methods). Subsequent peptide binding results typically in an increase of surface pressure. Thus, the peptide-monolayer interaction can be characterized by measurable kinetic properties, such as the initial velocity of surface pressure increase (Vi), which informs about the affinity of the peptide for the lipid-water interface, and the final increase of surface pressure (πmax), which can be related to the insertion ability of the peptide into the monolayer.
Figure 5 Changes in surface pressure after peptide injection. Peptides were injected underneath POPC/DOPE or POPC/DOPE/CL monolayers at constant area. A. Final increase of surface pressure πmax (mN/m) obtained for the different peptides. The dashed line denotes the threshold (Δπ = 4.8 mN/m) for significant surface pressure variation as determined using BAX-α5S without lipids (see text). B. Initial velocity of surface pressure increase (Vi = Δπ/s).
(§2) Monolayer experiments were performed on a computer-controlled Langmuir film balance (KSV 2000, three multi-compartment system, KSV Instrument Ltd., Finland) working in a symmetrical compression mode and enclosed in an opaque cabinet. The rectangular trough (V = 85 mL ±1 mL, S = 119.25 cm^2) was made of Teflon and the mobile barriers were made in Delrin. The surface pressure, π defined as γ0 – γ, where γ0 is the surface tension of the pure aqueous subphase and γ the surface tension exerted by phospholipids at the subphase surface, was measured by the Wilhelmy's method using a platinum plate with an accuracy of ±0.05 mN/m. The trough was filled with Hepes buffer (pH 7.4), used as subphase and thermostated with a water circulating bath (Lauda E100, LAUDA France, SARL). In all experiments, the subphase temperature was maintained at a constant value of 22.5±0.5°C.
Phospholipid monolayers were formed by deposition of 14 µl of spreading solutions at a clean air/buffer interface by means of a micropipette to reach a final amount of 14 nmol of phospholipids. […]

[2] = Langmuir monolayer penetration assay at constant area; type: physicochemical; conditions: POPC/DOPE/CL
Description: as §1, §2
Phospholipid monolayers were formed by deposition of 14 µl of spreading solutions at a clean air/buffer interface by means of a micropipette to reach a final amount of 14 nmol of phospholipids. After complete evaporation of the solvent (∼15 min), the monolayer was slowly compressed up to a defined lateral pressure (initial surface pressure πi) at a rate of 0.045 nm^2 molecule^−1 min^−1. The value of πi = 5 mN/m was chosen because it lies between the surface pressure set-off and surface pressures (e.g. 30 mN/m, which corresponds to a tightly packed film) where many peptides of the study will not insert. […]

## WGRVVALFYFASKLVLKALSTK [BAX-α5S, short peptide of the first helix (α5) of the central hairpin of BAX]
[1]
  final increase of surface pressure πmax (insertion), in words: highest increases in surface pressure
[2]; initial surface pressure 5 mN/m, peptide 0.2 µM in subphase, Hepes pH 7.4, 22.5°C, constant area
  surface pressure increase (Δπ) with lipid monolayer: 32.1 mN/m
[2]; πi = 5 mN/m, peptide injected underneath monolayer, compression-decompression experiment
  πmax (plateau surface pressure after peptide injection): 32.1 mN/m
[2]; extrapolation of linear Δπ versus πi plot to Δπ = 0
  exclusion pressure (πex): 33 mN/m
